tested on: HCV replicon (HCV 1b-377-neo replicon cells); assay: HCV replicon cell line FRET assay; type: cell-based; conditions: Hepatitis C virus; HCV replicon cell line, FRET assay; read-out: Replicon Inhibition Range EC50

Structure (SMILES)	EC50 [nM]
Cc1cnc(CN2C(=O)C(c3ccc(NC(=O)[C@@H]4CCCN4C(=O)OCc4ccccc4)cc3)S/C2=N\c2ccc(N3CCOCC3)cc2)cn1 (some centres unmarked) [Compound 70]	< 100
O=C(Nc1ccc(C2S/C(=N\c3cccnc3)N(Cc3cccc(F)c3)C2=O)cc1)[C@@H]1CCCN1C(=O)OCc1ccccc1 (some centres unmarked) [Compound 77]	< 100
O=C(Nc1ccc(C2S/C(=N\c3ccc(N4CCOCC4)cc3)N(c3ccccn3)C2=O)cc1)[C@@H]1CCCN1C(=O)OCc1ccccc1 (some centres unmarked) [Compound 94]	< 100
C[C@H](NC(=O)OCc1ccccc1)C(=O)Nc1ccc(C2S/C(=N\c3cccc(F)c3)N(CC3CCCO3)C2=O)cc1 (some centres unmarked) [Compound 26]	100 to 1000
O=C(Nc1ccc(C2S/C(=N\c3cccc(F)c3)N(Cc3ccccn3)C2=O)cc1)[C@@H]1CCCN1C(=O)OCc1ccccc1 (some centres unmarked) [Compound 3]	< 100
O=C(Nc1ccc(C2S/C(=N\c3ccc(N4CCOCC4)cc3)N(Cc3ccccn3)C2=O)cc1)[C@@H]1CCC(=O)N1C(=O)C(c1ccccc1)c1ccccc1 (some centres unmarked) [Compound 113]	100 to 1000
C[C@H](NC(=O)Cc1ccccc1)C(=O)Nc1ccc(C2S/C(=N\c3ccc(N4CCOCC4)cc3)N(Cc3ccccn3)C2=O)cc1 (some centres unmarked) [Compound 99]	< 100
O=C(Nc1ccc(C2S/C(=N\c3cccc(OC(F)(F)F)c3)N(Cc3ccco3)C2=O)cc1)[C@@H]1CCCN1C(=O)OCc1ccccc1 (some centres unmarked) [Compound 55]	100 to 1000
O=C(Nc1ccc(C2S/C(=N\c3cccc(F)c3)N(Cc3ccco3)C2=O)cc1)[C@@H]1CCCN1C(=O)OCc1ccccc1 (stereo partly drawn) [Compound 2, 2S-{4-[2-(3-fluorophenylimino)-3-furan-2ylmethyl-4-oxo-thiazolidin-5yl]-phenylcarbamoyl}pyrrolidine-1-carboxylic acid benzyl ester]	> 5000
O=C(Nc1ccc(C2S/C(=N\c3ccc(N4CCOCC4)cc3)N(Cc3ccccn3)C2=O)cc1)[C@@H]1CCC(=O)N1C(=O)OCc1ccccc1 (some centres unmarked) [Compound 88]	< 100
Cc1ccc(/N=C2\SC(c3ccc(NC(=O)[C@H](C)NC(=O)OCc4ccccc4)cc3)C(=O)N2Cc2ccco2)c(Cl)c1 (some centres unmarked) [Compound 41]	1000 to 5000
O=C(Nc1ccc(C2S/C(=N\c3ccc(N4CCOCC4)cc3)N(Cc3ccccn3)C2=O)cc1)[C@@H]1CCCN1C(=O)Cc1ccccc1 (some centres unmarked) [Compound 98]	< 100
COc1ccc(CCN2C(=O)C(c3ccc(NC(=O)[C@H](C)NC(=O)OCc4ccccc4)cc3)S/C2=N\c2cccc(F)c2)cc1OC (some centres unmarked) [Compound 28]	1000 to 5000
O=C(Nc1ccc(C2S/C(=N\c3ccc(N4CCOCC4)cc3)N(Cc3ccncc3)C2=O)cc1)[C@@H]1CCCN1C(=O)OCc1ccccc1 (some centres unmarked) [Compound 83]	< 100
C[C@H](NC(=O)OCc1ccccc1)C(=O)Nc1ccc(C2S/C(=N\c3ccc(F)c(C(F)(F)F)c3)N(Cc3ccco3)C2=O)cc1 (some centres unmarked) [Compound 68]	1000 to 5000
COc1ccc(C(F)(F)F)cc1/N=C1\SC(c2ccc(NC(=O)[C@@H]3CCCN3C(=O)OCc3ccccc3)cc2)C(=O)N1Cc1ccco1 (some centres unmarked) [Compound 49]	100 to 1000
C[C@@H](C(=O)N1CCC[C@H]1C(=O)Nc1ccc(C2S/C(=N\c3ccc(N4CCOCC4)cc3)N(Cc3ccccn3)C2=O)cc1)c1ccccc1 (some centres unmarked) [Compound 115]	< 100
O=C(Nc1ccc(C2S/C(=N\c3ccc(N4CCOCC4)cc3)N(Cc3ccccn3)C2=O)cc1)[C@@H]1CCCN1C(=O)NCc1ccccc1 (some centres unmarked) [Compound 135]	< 100
Cc1cnc(CN2C(=O)C(c3ccc(NC(=O)[C@H](C)NC(=O)OCc4ccccc4)cc3)S/C2=N\c2cccc(F)c2)cn1 (some centres unmarked) [Compound 6]	< 100
O=C(C(=O)N1CCC[C@H]1C(=O)Nc1ccc(C2S/C(=N\c3ccc(N4CCOCC4)cc3)N(Cc3ccccn3)C2=O)cc1)c1ccccc1 (some centres unmarked) [Compound 119]	< 100

Structure (SMILES)	EC50 [nM]
C[C@H](NC(=O)OCc1ccccc1)C(=O)Nc1ccc(C2S/C(=N\c3cccc(Cl)c3)N(Cc3ccco3)C2=O)cc1 (some centres unmarked) [Compound 54]	100 to 1000
C[C@H](NC(=O)Nc1ccccc1)C(=O)Nc1ccc(C2S/C(=N\c3cccc(F)c3)N(Cc3ccco3)C2=O)cc1 (some centres unmarked) [Compound 134]	1000 to 5000
O=C(Nc1ccc(C2S/C(=N\c3ccc(N4CCOCC4)cc3)N(Cc3ccccn3)C2=O)cc1)[C@@H]1CCCN1C(=O)C(c1ccccc1)c1ccccc1 (some centres unmarked) [Compound 107]	< 100
O=C(Nc1ccc(C2S/C(=N\c3cccc(F)c3)N(CC3CCCO3)C2=O)cc1)[C@@H]1CCCN1C(=O)OCc1ccccc1 (some centres unmarked) [Compound 14]	< 100
Cc1cnc(CN2C(=O)C(c3ccc(NC(=O)[C@@H]4CCC(=O)N4C(=O)OCc4ccccc4)cc3)S/C2=N\c2ccc(N3CCOCC3)cc2)cn1 (some centres unmarked) [Compound 71]	< 100
Cc1cc(F)ccc1/N=C1\SC(c2ccc(NC(=O)[C@H](C)NC(=O)OCc3ccccc3)cc2)C(=O)N1Cc1ccco1 (some centres unmarked) [Compound 58]	1000 to 5000
CC(C)/N=C1\SC(c2ccc(NC(=O)[C@H](C)NC(=O)[C@@H](O)c3ccccc3)cc2)C(=O)N1Cc1ccccn1 (some centres unmarked) [Compound 120]	< 100
O=C(Nc1ccc(C2S/C(=N\c3cc(F)cc(F)c3)N(Cc3ccco3)C2=O)cc1)[C@@H]1CCCN1C(=O)OCc1ccccc1 (some centres unmarked) [Compound 42]	100 to 1000
C[C@@H](C(=O)Nc1ccc(C2S/C(=N\c3ccc(N4CCOCC4)cc3)N(Cc3ccccn3)C2=O)cc1)N(C)C(=O)OCc1ccccc1 (some centres unmarked) [Compound 74]	100 to 1000
O=C(Nc1ccc(C2S/C(=N\c3cccc(Cl)c3)N(Cc3ccco3)C2=O)cc1)[C@@H]1CCCN1C(=O)OCc1ccccc1 (some centres unmarked) [Compound 53]	100 to 1000
COc1cccc(CN2C(=O)C(c3ccc(NC(=O)[C@H](C)NC(=O)OCc4ccccc4)cc3)S/C2=N\c2cccc(F)c2)c1 (some centres unmarked) [Compound 25]	100 to 1000
O=C(Nc1ccc(C2S/C(=N\c3ccc(F)cc3Cl)N(Cc3ccco3)C2=O)cc1)[C@@H]1CCCN1C(=O)OCc1ccccc1 (some centres unmarked) [Compound 59]	1000 to 5000
C[C@H](NC(=O)OCc1ccccc1)C(=O)Nc1ccc(C2S/C(=N\c3cc(F)cc(F)c3)N(Cc3ccco3)C2=O)cc1 (some centres unmarked) [Compound 43]	100 to 1000
O=C(Nc1ccc(C2S/C(=N\c3ccc(N4CCOCC4)cc3)N(Cc3ccccn3)C2=O)cc1)[C@@H]1CCCN1C(=O)Cc1ccc(C(F)(F)F)cc1 (some centres unmarked) [Compound 109]	1000 to 5000
C[C@H](NC(=O)OCc1ccccc1)C(=O)Nc1ccc(C2S/C(=N\c3ccc(N4CCOCC4)cc3)N(Cc3cccnc3)C2=O)cc1 (some centres unmarked) [Compound 80]	100 to 1000
O=C(Nc1ccc(C2S/C(=N\c3cccc(F)c3)N(Cc3ccccc3)C2=O)cc1)[C@@H]1CCCN1C(=O)OCc1ccccc1 (some centres unmarked) [Compound 16]	100 to 1000
C[C@H](NC(=O)CCc1ccccc1)C(=O)Nc1ccc(C2S/C(=N\c3cccc(F)c3)N(Cc3ccco3)C2=O)cc1 (some centres unmarked) [Compound 125]	1000 to 5000
C[C@H](NC(=O)OCc1ccccc1)C(=O)Nc1ccc(C2S/C(=N\c3ccc(F)c(Cl)c3)N(Cc3ccco3)C2=O)cc1 (some centres unmarked) [Compound 52]	1000 to 5000
O=C(Nc1ccc(C2SC3=Nc4ccccc4CN3C2=O)cc1)[C@H]1CCCN1C(=O)OCc1ccccc1 (some centres unmarked) [Compound 139]	100 to 1000
CN=C1SC(c2ccc(NC(=O)[C@@H]3CCCN3C(=O)OCc3ccccc3)cc2)C(=O)N1Cc1ccccn1 (some centres unmarked) [Compound 85]	< 100

Structure (SMILES)	EC50 [nM]
C[C@H](NC(=O)Cc1ccccc1)C(=O)Nc1ccc(C2S/C(=N\c3cccc(F)c3)N(Cc3ccccn3)C2=O)cc1 (some centres unmarked) [Compound 96]	< 100
CO[C@H](C(=O)N1CCC[C@H]1C(=O)Nc1ccc(C2S/C(=N\c3ccc(N4CCOCC4)cc3)N(Cc3ccccn3)C2=O)cc1)c1ccccc1 (some centres unmarked) [Compound 117]	< 100
O=C(Nc1ccc(C2S/C(=N\c3ccc(F)c(C(F)(F)F)c3)N(Cc3ccco3)C2=O)cc1)[C@@H]1CCCN1C(=O)OCc1ccccc1 (some centres unmarked) [Compound 67]	1000 to 5000
Cc1cnc(CN2C(=O)C(c3ccc(NC(=O)[C@@H]4CCCN4C(=O)OCc4ccccc4)cc3)S/C2=N\c2cccc(F)c2)cn1 (some centres unmarked) [Compound 5]	< 100
C[C@H](NC(=O)OCc1ccccc1)C(=O)Nc1ccc(C2S/C(=N\c3ccc(N4CCOCC4)cc3)N(Cc3ccncc3)C2=O)cc1 (some centres unmarked) [Compound 82]	< 100
O=C(Nc1ccc(C2S/C(=N\c3cccc(F)c3)N(Cc3cccnc3)C2=O)cc1)[C@@H]1CCCN1C(=O)OCc1ccccc1 (some centres unmarked) [Compound 15]	< 100
C[C@H](NC(=O)OCc1ccccc1)C(=O)Nc1ccc(C2S/C(=N\c3cccc4ccncc34)N(Cc3ccco3)C2=O)cc1 (some centres unmarked) [Compound 12]	< 100
C[C@H](NC(=O)OCc1ccccc1)C(=O)Nc1ccc(C2S/C(=N\c3cccc(F)c3)N(Cc3ccc(F)c(F)c3F)C2=O)cc1 (some centres unmarked) [Compound 29]	1000 to 5000
C[C@H](NC(=O)OCc1ccccc1)C(=O)Nc1ccc(C2S/C(=N\c3cccc(F)c3)N(CCc3cccs3)C2=O)cc1 (some centres unmarked) [Compound 24]	100 to 1000
COc1ccc(/N=C2\SC(c3ccc(NC(=O)[C@H](C)NC(=O)OCc4ccccc4)cc3)C(=O)N2Cc2ccco2)cc1F (some centres unmarked) [Compound 66]	100 to 1000
C[C@H](NC(=O)NCc1ccccc1)C(=O)Nc1ccc(C2S/C(=N\c3cccc(F)c3)N(Cc3ccco3)C2=O)cc1 (some centres unmarked) [Compound 133]	100 to 1000
C[C@H](NC(=O)c1ccccc1)C(=O)Nc1ccc(C2S/C(=N\c3cccc(F)c3)N(Cc3ccco3)C2=O)cc1 (some centres unmarked) [Compound 126]	1000 to 5000
O=C(Nc1ccc(C2S/C(=N\c3ccc(N4CCOCC4)cc3)N(Cc3ccccn3)C2=O)cc1)[C@@H]1CCCN1C(=O)C1(c2ccc(F)cc2)CCCC1 (some centres unmarked) [Compound 105]	100 to 1000
Cc1cnc(CN2C(=O)C(c3ccc(NC(=O)[C@H](C)NC(=O)OCc4ccccc4)cc3)S/C2=N\c2ccc(N3CCOCC3)cc2)cn1 (some centres unmarked) [Compound 69]	< 100
COc1ccc(/N=C2\SC(c3ccc(NC(=O)[C@@H]4CCCN4C(=O)OCc4ccccc4)cc3)C(=O)N2Cc2ccco2)cc1F (some centres unmarked) [Compound 65]	< 100
C[C@H](NC(=O)OCc1ccccc1)C(=O)Nc1ccc(C2S/C(=N\c3cccc(F)c3)N(Cc3ccccn3)C2=O)cc1 (some centres unmarked) [Compound 4]	< 100
C[C@H](NC(=O)OCc1ccccc1)C(=O)Nc1ccc(C2S/C(=N\c3ccc4c(c3)OCCO4)N(Cc3ccco3)C2=O)cc1 (some centres unmarked) [Compound 64]	< 100
CCOC(=O)/N=C1\SC(c2ccc(NC(=O)[C@@H]3CCCN3C(=O)OCc3ccccc3)cc2)C(=O)N1Cc1ccccn1 (some centres unmarked) [Compound 91]	< 100
C[C@H](NC(=O)OCc1ccccc1)C(=O)Nc1ccc(C2S/C(=N\c3cccc(OC(F)(F)F)c3)N(Cc3ccco3)C2=O)cc1 (some centres unmarked) [Compound 56]	100 to 1000

Source: patent US20050069522A1, “Combination pharmaceutical agents as inhibitors of HCV replication” (priority 2002, published 2005)
